Results as given in US20170086467A1, “MOLLUSCICIDE COMPOSITIONS AND METHODS OF USE THEREOF” (ECOFLORA AGRO SAS, priority 2014, published 2017).
Where two headings read alike, the source gives them in different places.

Experiments:
[1] = 200° C.; one hour drying
Source text: Caffeine was also quantitated by HPLC to determine the thermal stability of the molecule.

[2] = test system: banana tree snails (African snails); test: Mortality of banana plantation snails on treated plates in a shade house; assay type: in vivo; conditions: T7, 2 g/plate
Experimental: The experiments were conducted in a shade house. Plastic plates and baskets for cover were used to keep the snails in contact with the products. Live snails were obtained by collection/pick up in a banana plantation. Approximately 250 snails were captured early in the morning, the time of day when they are still found in large numbers on the leaves and trunks of banana plants.
BROMOREX® 9.37 is a liquid formulation comprising capsicum extract and mustard essential oil. metaldehyde is a chemical molluscicide.
Four plates per treatment were randomly arranged on a shelf in the shade house. At the bottom of each plate small portions of banana leaves, papaya, and two slices of ripe bananas were placed. 20 mL of each sample was poured into each plate. Eight live snails of the same morphology and size were placed on each plate. Each treatment was repeated 4 times. The plates were covered with baskets that promoted good ventilation and prevented the snails from escaping. The treatments were carried out in late afternoon.
The behavior of snails in contact with the products as well as the mortality of the snails were recorded and interpreted. The data on the mortality of snails to 5 days after application of the products were statistically analyzed using the R software version 3.0.1. The separation of averages for significant effects was made using the Newman-Keuls test at 5% significant level.

## Cn1c(=O)c2c(ncn2C)n(C)c1=O [caffeine, 3,7-dihydro-1,3,7-trimethyl-1H-purine-2,6-dione]
[1]
  thermal stability (in words): Pyrolysis and caffeine sublimation were observed
other
  thermal stability (in words): stable

## CC1OC(C)OC(C)OC(C)O1 (stereo not shown) [metaldehyde]
[2]; 3 hours after treatment
  mortality rate: 6.25%
[2]; after 5 days
  mortality rate: 34%
